Reference: PubChem BioAssay (NCI)
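Compound exposure: 48 hours, 5 concentrations, 96-well plates. TGI marks complete inhibition of growth.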

Key:
Test in all cases: NCI-60 cell line screen, 48 h
BT-549 breast = test system: BT-549 breast
SK-MEL-2 melanoma = test system: SK-MEL-2 melanoma
HT29 colon = test system: HT29 colon
A498 renal = test system: A498 renal
CAKI-1 renal = test system: CAKI-1 renal
HCT-15 colon = test system: HCT-15 colon
NCI-H23 lung = test system: NCI-H23 lung
KM12 colon = test system: KM12 colon
OVCAR-4 ovarian = test system: OVCAR-4 ovarian
OVCAR-8 ovarian = test system: OVCAR-8 ovarian
MCF7 breast = test system: MCF7 breast
SF-539 CNS = test system: SF-539 CNS
CCRF-CEM leukemia = test system: CCRF-CEM leukemia
HOP-62 NSCLC = test system: HOP-62 NSCLC
HL-60(TB) leukemia = test system: HL-60(TB) leukemia
U251 CNS = test system: U251 CNS
SNB-75 CNS = test system: SNB-75 CNS
TK-10 renal = test system: TK-10 renal
OVCAR-3 ovarian = test system: OVCAR-3 ovarian
UACC-62 melanoma = test system: UACC-62 melanoma
SN12C renal = test system: SN12C renal
PC-3 prostate = test system: PC-3 prostate
SF-295 CNS = test system: SF-295 CNS
HOP-92 NSCLC = test system: HOP-92 NSCLC
IGROV1 ovarian = test system: IGROV1 ovarian
HCT-116 colon = test system: HCT-116 colon
MDA-MB-435 = test system: MDA-MB-435
SK-MEL-28 melanoma = test system: SK-MEL-28 melanoma
UACC-257 melanoma = test system: UACC-257 melanoma
786-0 renal = test system: 786-0 renal
SNB-19 CNS = test system: SNB-19 CNS
SF-268 CNS = test system: SF-268 CNS
SK-OV-3 ovarian = test system: SK-OV-3 ovarian
MOLT-4 leukemia = test system: MOLT-4 leukemia
EKVX NSCLC = test system: EKVX NSCLC
RPMI-8226 leukemia = test system: RPMI-8226 leukemia
COLO 205 colon = test system: COLO 205 colon
K-562 leukemia = test system: K-562 leukemia
DU-145 prostate = test system: DU-145 prostate
NCI/ADR-RES ovarian = test system: NCI/ADR-RES ovarian
MDA-MB-231 breast = test system: MDA-MB-231 breast
SR leukemia = test system: SR leukemia
MDA-N = test system: MDA-N
UO-31 renal = test system: UO-31 renal
LOX IMVI melanoma = test system: LOX IMVI melanoma
HS 578T breast = test system: HS 578T breast
NCI-H460 lung = test system: NCI-H460 lung
OVCAR-5 ovarian = test system: OVCAR-5 ovarian
MALME-3M melanoma = test system: MALME-3M melanoma
M14 melanoma = test system: M14 melanoma
A549 NSCLC = test system: A549 NSCLC
SK-MEL-5 melanoma = test system: SK-MEL-5 melanoma
NCI-H522 lung = test system: NCI-H522 lung
NCI-H226 lung = test system: NCI-H226 lung
SW-620 colon = test system: SW-620 colon
RXF 393 renal = test system: RXF 393 renal
T-47D breast = test system: T-47D breast
ACHN renal = test system: ACHN renal
HCC-2998 colon = test system: HCC-2998 colon

**Q.** Which results are given for `Cc1c(C=C(C#N)C#N)c(=O)n(C)c(=O)n1C`?
**A.** TGI (BT-549 breast): > 100 µM; TGI (SK-MEL-2 melanoma): > 100 µM; TGI (HT29 colon): > 100 µM; TGI (A498 renal): > 100 µM; TGI (CAKI-1 renal): > 100 µM; TGI (HCT-15 colon): > 100 µM; TGI (NCI-H23 lung): > 100 µM; TGI (KM12 colon): > 100 µM; TGI (OVCAR-4 ovarian): > 100 µM; TGI (OVCAR-8 ovarian): > 100 µM; TGI (MCF7 breast): > 100 µM; TGI (SF-539 CNS): > 100 µM; TGI (CCRF-CEM leukemia): 94.8 µM; TGI (HOP-62 NSCLC): > 100 µM; TGI (HL-60(TB) leukemia): > 100 µM; TGI (U251 CNS): > 100 µM; TGI (SNB-75 CNS): > 100 µM; TGI (TK-10 renal): > 100 µM; TGI (OVCAR-3 ovarian): > 100 µM; TGI (UACC-62 melanoma): > 100 µM; TGI (SN12C renal): > 100 µM; TGI (PC-3 prostate): > 100 µM; TGI (SF-295 CNS): > 100 µM; TGI (HOP-92 NSCLC): > 100 µM; TGI (IGROV1 ovarian): > 100 µM; TGI (HCT-116 colon): > 100 µM; TGI (MDA-MB-435): > 100 µM; TGI (SK-MEL-28 melanoma): > 100 µM; TGI (UACC-257 melanoma): > 100 µM; TGI (786-0 renal): > 100 µM; TGI (SNB-19 CNS): > 100 µM; TGI (SF-268 CNS): > 100 µM; TGI (SK-OV-3 ovarian): > 100 µM; TGI (MOLT-4 leukemia): > 100 µM; TGI (EKVX NSCLC): > 100 µM; TGI (RPMI-8226 leukemia): > 100 µM; TGI (COLO 205 colon): > 100 µM; TGI (K-562 leukemia): > 100 µM; TGI (DU-145 prostate): > 100 µM; TGI (NCI/ADR-RES ovarian): > 100 µM; TGI (MDA-MB-231 breast): > 100 µM; TGI (SR leukemia): > 100 µM; TGI (MDA-N): > 100 µM; TGI (UO-31 renal): > 100 µM; TGI (LOX IMVI melanoma): > 100 µM; TGI (HS 578T breast): > 100 µM; TGI (NCI-H460 lung): > 100 µM; TGI (OVCAR-5 ovarian): > 100 µM; TGI (MALME-3M melanoma): > 100 µM; TGI (M14 melanoma): > 100 µM; TGI (A549 NSCLC): > 100 µM; TGI (SK-MEL-5 melanoma): > 100 µM; TGI (NCI-H522 lung): > 100 µM; TGI (NCI-H226 lung): > 100 µM; TGI (SW-620 colon): > 100 µM; TGI (RXF 393 renal): > 100 µM; TGI (T-47D breast): > 100 µM; TGI (ACHN renal): > 100 µM

**Q.** What does the source list for `COc1ccc(/C=C2\CC3C4CC=C5C[C@@H](O)CC[C@]5(C)C4CC[C@]3(C)C2=O)cc1OC` (stereo partly specified)?
**A.** TGI (BT-549 breast): > 100 µM; TGI (SK-MEL-2 melanoma): > 100 µM; TGI (HT29 colon): > 100 µM; TGI (A498 renal): 93.6 µM; TGI (CAKI-1 renal): > 100 µM; TGI (HCT-15 colon): > 100 µM; TGI (NCI-H23 lung): > 100 µM; TGI (KM12 colon): > 100 µM; TGI (OVCAR-4 ovarian): > 100 µM; TGI (OVCAR-8 ovarian): > 100 µM; TGI (MCF7 breast): > 100 µM; TGI (SF-539 CNS): > 100 µM; TGI (CCRF-CEM leukemia): > 100 µM; TGI (HOP-62 NSCLC): > 100 µM; TGI (HCC-2998 colon): > 100 µM; TGI (HL-60(TB) leukemia): > 100 µM; TGI (U251 CNS): > 100 µM; TGI (SNB-75 CNS): > 100 µM; TGI (TK-10 renal): > 100 µM; TGI (OVCAR-3 ovarian): 51.9 µM; TGI (UACC-62 melanoma): > 100 µM; TGI (SN12C renal): > 100 µM; TGI (PC-3 prostate): > 100 µM; TGI (SF-295 CNS): 50.4 µM; TGI (HOP-92 NSCLC): > 100 µM; TGI (IGROV1 ovarian): > 100 µM; TGI (HCT-116 colon): > 100 µM; TGI (MDA-MB-435): > 100 µM; TGI (SK-MEL-28 melanoma): > 100 µM; TGI (UACC-257 melanoma): > 100 µM; TGI (786-0 renal): > 100 µM; TGI (SNB-19 CNS): > 100 µM; TGI (SF-268 CNS): > 100 µM; TGI (SK-OV-3 ovarian): > 100 µM; TGI (MOLT-4 leukemia): 83.4 µM; TGI (EKVX NSCLC): > 100 µM; TGI (RPMI-8226 leukemia): 36.2 µM; TGI (COLO 205 colon): 47 µM; TGI (K-562 leukemia): > 100 µM; TGI (DU-145 prostate): > 100 µM; TGI (NCI/ADR-RES ovarian): > 100 µM; TGI (MDA-MB-231 breast): > 100 µM; TGI (MDA-N): > 100 µM; TGI (UO-31 renal): 90.3 µM; TGI (LOX IMVI melanoma): > 100 µM; TGI (HS 578T breast): > 100 µM; TGI (NCI-H460 lung): > 100 µM; TGI (OVCAR-5 ovarian): > 100 µM; TGI (MALME-3M melanoma): > 100 µM; TGI (M14 melanoma): > 100 µM; TGI (A549 NSCLC): > 100 µM; TGI (SK-MEL-5 melanoma): 21.9 µM; TGI (NCI-H522 lung): 57.6 µM; TGI (NCI-H226 lung): > 100 µM; TGI (SW-620 colon): > 100 µM; TGI (RXF 393 renal): > 100 µM; TGI (T-47D breast): > 100 µM; TGI (ACHN renal): > 100 µM
